Where two headings read alike, the source gives them in different places.
What was measured:
enkephalinase Al = molecular target: T1, enkephalinase Al (Rattus norvegicus, UniProt P07861); experiment: Enkephalinase-inhibiting activity in vitro (3H-TGG generation from 3H-leucine enkephalin by purified enkephalinase Al); format: biochemical; details: approximate, determined graphically; leucine enkephalin 5×10^-5 M, 30° C., 30 mins with enzyme; read-out: IC50 (concentration of test compound required for 50% inhibition of 3H-TGG generation)
T1 construct: from tissue; host or cells: rat striatum (membrane pellet, Triton X-100 solubilised, DEAE-cellulose and Sephacryl S-300)
T1 sequence (P07861 1-750): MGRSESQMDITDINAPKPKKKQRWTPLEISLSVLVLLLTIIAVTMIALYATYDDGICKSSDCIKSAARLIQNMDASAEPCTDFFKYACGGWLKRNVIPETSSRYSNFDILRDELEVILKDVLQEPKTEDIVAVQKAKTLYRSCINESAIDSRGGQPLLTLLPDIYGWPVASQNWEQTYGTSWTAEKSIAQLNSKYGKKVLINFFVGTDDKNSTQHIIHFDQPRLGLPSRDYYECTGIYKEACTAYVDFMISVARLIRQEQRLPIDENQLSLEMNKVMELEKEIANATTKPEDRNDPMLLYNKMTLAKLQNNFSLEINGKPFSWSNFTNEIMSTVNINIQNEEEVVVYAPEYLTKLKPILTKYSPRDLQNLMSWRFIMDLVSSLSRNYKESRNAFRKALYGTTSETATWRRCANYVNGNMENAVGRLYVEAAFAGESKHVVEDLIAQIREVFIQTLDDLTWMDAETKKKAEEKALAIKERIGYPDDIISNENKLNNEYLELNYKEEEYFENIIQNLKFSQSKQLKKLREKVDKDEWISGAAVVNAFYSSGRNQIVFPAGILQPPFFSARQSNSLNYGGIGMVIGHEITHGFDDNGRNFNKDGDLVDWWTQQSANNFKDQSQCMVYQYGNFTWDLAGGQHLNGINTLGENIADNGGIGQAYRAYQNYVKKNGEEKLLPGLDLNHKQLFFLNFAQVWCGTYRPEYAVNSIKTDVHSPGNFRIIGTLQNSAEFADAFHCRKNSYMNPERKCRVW
Description: The compounds were investigated for enkephalinase inhibiting activity using the following method.
Rats were killed by decapitation and the striata dissected out on ice. The pooled tissues were homogenised on ice-cold Tris/hydrochloric acid buffer (50 mM, pH 7.70, 30 ml per gram of tissue) and centrifuged (50,000 g, 15 mins). The resulting supernatent was discarded and the remaining pellet washed three times. The washed pellet was solubilised by resuspension in half the volume of buffer as before containing 1.0% (v/v) Triton X-100 and incubated at 37° C. for 45 mins. The suspension was then centrifuged at 100,000 g for 60 mins and the solubilised enzymes contained in the supernatant separated by DEAE-cellulose column chromatography. Enkephalinase Al was further purified by Sephacryl S.300 chromatograph.
Enkephalinase-inhibiting activity was estimated by the following procedure.
Separation of (a) unchanged ^3 H-leucine enkephalin and (b) ^3 H-Tyr-Gly-OH(^3 H-TGG), generated from (a) by enkephalinase Al in the incubation mixture was effected by thin layer chromatography (plastic silica gel plates of 0.1 mm layer thickness, solvent system ethyl acetate:propan-2-ol:5% (v/v) acetic acid, 2:2:1) using solutions of the cold compounds as carriers. After drying the materials were visualized with ninhydrin and appropriate areas of the plates cut out and placed in scintillation vials containing 50% methanol/0.1M hydrochloric acid to elute the ^3 H label. Bioflor reagent (10 ml) was then added and the radioactivity determined by liquid scintillation counting.

ACE and enkephalinase = details: specificity for ACE over enkephalinase; Swerts et al; cited from earlier work
`Enkephalinase` = molecular target: T2, `Enkephalinase` (Mus musculus, UniProt Q61391); experiment: Activity ex vivo: `enkephalinase` activity in lung and brain homogenates of mice dosed i.p. with test compound; details: for ED50: mouse, ip, 0.25 h; for Lung/Brain (ED50 ratio): ratio of apparent ED50 values for lung and brain, 15 min
T2 construct: The lung and brain (less cerebellum) were rapidly dissected, weighed and homogenised; from tissue; host or cells: mouse lung and brain (less cerebellum) homogenate
T2 sequence (Q61391 1-750): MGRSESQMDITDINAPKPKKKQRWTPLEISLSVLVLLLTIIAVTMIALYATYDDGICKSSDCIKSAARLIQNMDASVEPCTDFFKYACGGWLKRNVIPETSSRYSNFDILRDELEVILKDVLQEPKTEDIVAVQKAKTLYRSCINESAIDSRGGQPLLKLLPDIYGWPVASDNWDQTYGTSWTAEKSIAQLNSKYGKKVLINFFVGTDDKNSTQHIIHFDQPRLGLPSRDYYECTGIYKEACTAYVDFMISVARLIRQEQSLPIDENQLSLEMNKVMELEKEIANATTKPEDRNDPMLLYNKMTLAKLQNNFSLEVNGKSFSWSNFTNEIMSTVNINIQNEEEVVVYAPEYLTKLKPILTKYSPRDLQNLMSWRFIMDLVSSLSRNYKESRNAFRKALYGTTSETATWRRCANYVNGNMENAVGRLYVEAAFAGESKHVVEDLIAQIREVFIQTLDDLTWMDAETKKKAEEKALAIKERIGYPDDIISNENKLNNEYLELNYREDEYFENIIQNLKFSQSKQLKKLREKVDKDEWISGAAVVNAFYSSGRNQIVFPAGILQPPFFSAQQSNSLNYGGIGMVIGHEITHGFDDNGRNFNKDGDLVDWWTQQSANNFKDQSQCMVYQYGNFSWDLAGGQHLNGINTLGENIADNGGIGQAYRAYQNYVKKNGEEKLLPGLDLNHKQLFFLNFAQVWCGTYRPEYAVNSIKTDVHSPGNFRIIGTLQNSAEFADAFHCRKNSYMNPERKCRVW
Description: Mice were dosed i.p. with 0-30 mg/Kg of test compound suspended in 0.25% w/v celacol/0.85% w/v saline. The mice were killed 15 minutes after administration of the doses. The lung and brain (less cerebellum) were rapidly dissected, weighed and homogenised in 100 mM tris-HCl pH 7.4 buffer containing 1 uM Captopril to give a 9.1% W/V homogenate. `Enkephalinase` activity in the homogenate was measured by incubation at 37° C. with 100 μM [^3 H]-D-Tyr-D-Ala-L-Gly-L-Gly-L-Phe-L-leu for 10 minutes (lung) or 30 minutes (brain).

[1] = brain (less cerebellum) homogenate, 15 minutes after administration, read-out: Apparent ED50 Brain
[2] = lung homogenate, 15 minutes after administration, read-out: Apparent ED50 Lung

SMILES	IC50 (enkephalinase Al)	ED50 (`Enkephalinase`; [1])	ED50 (`Enkephalinase`; [2])	further results
CC(C)C[C@H](NC(=O)C(Cc1ccc([N+](=O)[O-])cc1)C(=O)NO)C(=O)O (stereo partly shown) [Compound 9]	520 nM	–	–	–
C[C@H](CS)C(=O)N1CCC[C@H]1C(=O)O [Captopril, 1-(D-3-mercapto-2-methylpropanoyl)-L-proline (S,S)]	–	–	–	concentration required to inhibit ACE by 50% lower than that required for the same inhibition of enkephalinase (ACE and enkephalinase): approximately 1000 fold
CC(C)C[C@H](NC(=O)C(Cc1ccc(C(C)C)cc1)C(=O)NO)C(=O)O (stereo partly drawn) [Compound 2, N-[2-(N-Hydroxycarbamoyl)-3-(4-isopropylphenyl)propanoyl]-L-leucine]	120 nM	–	–	–
O=C(O)CNC(=O)C(CS)Cc1ccccc1 (racemic) [Thiorphan, (DL-3-mercapto-2-benzylpropanoyl)-glycine, reference compound]	–	3.92 µmol/kg	0.69 µmol/kg	–
CC(C)C[C@H](NC(=O)C(Cc1ccc(Br)cc1)C(=O)NO)C(=O)O (stereo partly shown) [Compound 10]	60 nM	–	–	–
CC(C)C[C@H](NC(=O)C(Cc1ccccc1)C(=O)NO)C(=O)OC(C)(C)C (stereo partly drawn) [Compound 6, Tert-butyl N-[(DL)-2-hydroxycarbamoyl)-3-phenylpropanoyl]-L-leucinate]	–	–	> 26.5 µmol/kg	Apparent ED50 Brain (`Enkephalinase`; brain (less cerebellum) homogenate, 15 minutes after administration): No inhibn. at 26.5
CC(C)C[C@H](NC(=O)C(Cc1ccccc1)C(=O)NO)C(=O)O (stereo partly drawn) [Compound 1, N-[2-(N-Hydroxycarbamoyl)-3-phenylpropanoyl]-L-leucine]	19 nM	14.6 µmol/kg	6.1 µmol/kg	Lung/Brain (ED50 ratio) (`Enkephalinase`): 2.4
COc1ccc(CC(C(=O)NO)C(=O)N[C@@H](CC(C)C)C(=O)O)cc1 (stereo partly drawn) [Compound 3, N-[2-(N-Hydroxycarbamoyl)-3-(4-methoxyphenyl)-propanoyl]-L-leucine]	750 nM	–	–	–
CCOC(=O)[C@H](CC(C)C)NC(=O)C(Cc1ccccc1)C(=O)NO (stereo partly drawn) [Compound 4, Ethyl N-[(DL)-2-hydroxycarbamoyl)-3-phenylpropanoyl]-L-leucinate]	–	> 85.7 µmol/kg	8.6 µmol/kg	Lung/Brain (ED50 ratio) (`Enkephalinase`): > 10

— patent US4504492A, “Pharmaceutical amides, and preparation, formulations and use thereof” (Burroughs Wellcome Co., priority 1981, dated 1985)
